Test results as given in PubChem BioAssay (NCI).
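The concentration for 50% growth inhibition is given as GI50. TGI: total growth inhibition.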

What was measured:
Assay in all cases: NCI tumour cell line growth inhibition, 384-well format
OVCAR-8 ovarian = system: OVCAR-8 ovarian
MDA-MB-231 breast = system: MDA-MB-231 breast
MCF7 breast = system: MCF7 breast
CAKI-1 renal = system: CAKI-1 renal
CCRF-CEM leukemia = system: CCRF-CEM leukemia
HS 578T breast = system: HS 578T breast
EKVX NSCLC = system: EKVX NSCLC
MDA-MB-435 melanoma = system: MDA-MB-435 melanoma
NCI/ADR-RES ovarian = system: NCI/ADR-RES ovarian
786-0 renal = system: 786-0 renal
SN12C renal = system: SN12C renal
SNB-19 CNS = system: SNB-19 CNS
T-47D breast = system: T-47D breast
SK-MEL-5 melanoma = system: SK-MEL-5 melanoma
RPMI-8226 leukemia = system: RPMI-8226 leukemia
OVCAR-4 ovarian = system: OVCAR-4 ovarian
SF-268 CNS = system: SF-268 CNS
NCI-H23 lung = system: NCI-H23 lung
RXF 393 renal = system: RXF 393 renal
MDA-MB-468 breast = system: MDA-MB-468 breast
SF-539 CNS = system: SF-539 CNS
MOLT-4 leukemia = system: MOLT-4 leukemia
IGROV1 ovarian = system: IGROV1 ovarian
UACC-62 melanoma = system: UACC-62 melanoma
TK-10 renal = system: TK-10 renal
BT-549 breast = system: BT-549 breast
HT29 colon = system: HT29 colon
HOP-92 NSCLC = system: HOP-92 NSCLC
NCI-H226 lung = system: NCI-H226 lung
OVCAR-5 ovarian = system: OVCAR-5 ovarian
NCI-H460 NSCLC = system: NCI-H460 NSCLC
KM12 colon = system: KM12 colon
M14 melanoma = system: M14 melanoma
A498 renal = system: A498 renal
UACC-257 melanoma = system: UACC-257 melanoma
HOP-62 NSCLC = system: HOP-62 NSCLC
SK-MEL-28 melanoma = system: SK-MEL-28 melanoma
HCT-15 colon = system: HCT-15 colon
SW-620 colon = system: SW-620 colon
ACHN renal = system: ACHN renal
SR leukemia = system: SR leukemia
A549 NSCLC = system: A549 NSCLC
SF-295 CNS = system: SF-295 CNS
COLO 205 colon = system: COLO 205 colon
SK-OV-3 ovarian = system: SK-OV-3 ovarian
MALME-3M melanoma = system: MALME-3M melanoma
PC-3 prostate = system: PC-3 prostate
SK-MEL-2 melanoma = system: SK-MEL-2 melanoma
HCC-2998 colon = system: HCC-2998 colon
HL-60(TB) leukemia = system: HL-60(TB) leukemia
NCI-H522 lung = system: NCI-H522 lung
U251 glioblastoma = system: U251 glioblastoma
DU-145 prostate = system: DU-145 prostate
OVCAR-3 ovarian = system: OVCAR-3 ovarian
NCI-H322M lung = system: NCI-H322M lung

## Cn1cc(C[C@@H](N)C(=O)O)c2ccccc21
OVCAR-8 ovarian
  GI50: > 100 µM
  TGI: > 100 µM
MDA-MB-231 breast
  GI50: > 100 µM
  TGI: > 100 µM
MCF7 breast
  GI50: > 100 µM
  TGI: > 100 µM
CAKI-1 renal
  GI50: > 100 µM
  TGI: > 100 µM
CCRF-CEM leukemia
  GI50: > 100 µM
  TGI: > 100 µM
HS 578T breast
  GI50: > 100 µM
  TGI: > 100 µM
EKVX NSCLC
  GI50: > 100 µM
  TGI: > 100 µM
MDA-MB-435 melanoma
  GI50: > 100 µM
  TGI: > 100 µM
NCI/ADR-RES ovarian
  GI50: > 100 µM
  TGI: > 100 µM
786-0 renal
  GI50: > 100 µM
  TGI: > 100 µM
SN12C renal
  GI50: > 100 µM
  TGI: > 100 µM
SNB-19 CNS
  GI50: > 100 µM
  TGI: > 100 µM
T-47D breast
  GI50: > 100 µM
  TGI: > 100 µM
SK-MEL-5 melanoma
  GI50: > 100 µM
  TGI: > 100 µM
RPMI-8226 leukemia
  GI50: > 100 µM
  TGI: > 100 µM
OVCAR-4 ovarian
  GI50: > 100 µM
  TGI: > 100 µM
SF-268 CNS
  GI50: > 100 µM
  TGI: > 100 µM
NCI-H23 lung
  GI50: > 100 µM
  TGI: > 100 µM
RXF 393 renal
  GI50: > 100 µM
  TGI: > 100 µM
MDA-MB-468 breast
  GI50: > 100 µM
  TGI: > 100 µM
SF-539 CNS
  GI50: > 100 µM
  TGI: > 100 µM
MOLT-4 leukemia
  GI50: > 100 µM
  TGI: > 100 µM
IGROV1 ovarian
  GI50: > 100 µM
  TGI: > 100 µM
UACC-62 melanoma
  GI50: > 100 µM
  TGI: > 100 µM
TK-10 renal
  GI50: > 100 µM
  TGI: > 100 µM
BT-549 breast
  GI50: > 100 µM
  TGI: > 100 µM
HT29 colon
  GI50: > 100 µM
  TGI: > 100 µM
HOP-92 NSCLC
  GI50: > 100 µM
  TGI: > 100 µM
NCI-H226 lung
  GI50: > 100 µM
  TGI: > 100 µM
OVCAR-5 ovarian
  GI50: > 100 µM
  TGI: > 100 µM
NCI-H460 NSCLC
  GI50: > 100 µM
  TGI: > 100 µM
KM12 colon
  GI50: > 100 µM
  TGI: > 100 µM
M14 melanoma
  GI50: > 100 µM
  TGI: > 100 µM
A498 renal
  GI50: > 100 µM
  TGI: > 100 µM
UACC-257 melanoma
  GI50: > 100 µM
  TGI: > 100 µM
HOP-62 NSCLC
  GI50: > 100 µM
  TGI: > 100 µM
SK-MEL-28 melanoma
  GI50: > 100 µM
  TGI: > 100 µM
HCT-15 colon
  GI50: > 100 µM
  TGI: > 100 µM
SW-620 colon
  GI50: > 100 µM
  TGI: > 100 µM
ACHN renal
  GI50: > 100 µM
  TGI: > 100 µM
SR leukemia
  GI50: > 100 µM
  TGI: > 100 µM
A549 NSCLC
  GI50: > 100 µM
  TGI: > 100 µM
SF-295 CNS
  GI50: > 100 µM
  TGI: > 100 µM
COLO 205 colon
  GI50: > 100 µM
  TGI: > 100 µM
SK-OV-3 ovarian
  GI50: > 100 µM
  TGI: > 100 µM
MALME-3M melanoma
  GI50: > 100 µM
  TGI: > 100 µM
PC-3 prostate
  GI50: > 100 µM
  TGI: > 100 µM
SK-MEL-2 melanoma
  GI50: > 100 µM
  TGI: > 100 µM
HCC-2998 colon
  GI50: > 100 µM
  TGI: > 100 µM
HL-60(TB) leukemia
  GI50: > 100 µM
  TGI: > 100 µM
NCI-H522 lung
  GI50: > 100 µM
  TGI: > 100 µM
U251 glioblastoma
  GI50: > 100 µM
  TGI: > 100 µM
DU-145 prostate
  GI50: > 100 µM
  TGI: > 100 µM
OVCAR-3 ovarian
  GI50: > 100 µM
  TGI: > 100 µM
NCI-H322M lung
  GI50: > 100 µM
  TGI: > 100 µM
